From ChEMBL document CHEMBL5463725, “Data for DCP probe BAY-277” (2023)
Calls of active or inactive are those of the source. The rule behind the calls is not given here.

Columns and labels:
[1] = target: T1, Muscarinic acetylcholine receptor M1 (Homo sapiens, UniProt P11229); test: GPCRScan assay: inhibition of M1; set-up: radioligand conc. used [nm] 0.3 – 1.2, parental cells stable CHO
T1 sequence (P11229 whole entry): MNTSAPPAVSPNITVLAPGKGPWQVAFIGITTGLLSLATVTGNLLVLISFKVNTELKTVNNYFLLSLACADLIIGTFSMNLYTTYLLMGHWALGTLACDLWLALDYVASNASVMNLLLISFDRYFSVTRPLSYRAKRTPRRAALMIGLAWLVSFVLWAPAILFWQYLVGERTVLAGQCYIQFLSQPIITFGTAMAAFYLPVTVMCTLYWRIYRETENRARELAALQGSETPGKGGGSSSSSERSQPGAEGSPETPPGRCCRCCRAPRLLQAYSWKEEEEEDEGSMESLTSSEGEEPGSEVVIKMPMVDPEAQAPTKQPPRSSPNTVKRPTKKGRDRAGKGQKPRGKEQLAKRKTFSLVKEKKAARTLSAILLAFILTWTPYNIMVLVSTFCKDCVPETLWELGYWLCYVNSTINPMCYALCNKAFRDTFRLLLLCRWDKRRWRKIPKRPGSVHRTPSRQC

[2] = target: T2, Methionine aminopeptidase 2 (Homo sapiens, UniProt P50579); test: METAP2 biochemical assay (human)
T2 sequence (P50579 whole entry): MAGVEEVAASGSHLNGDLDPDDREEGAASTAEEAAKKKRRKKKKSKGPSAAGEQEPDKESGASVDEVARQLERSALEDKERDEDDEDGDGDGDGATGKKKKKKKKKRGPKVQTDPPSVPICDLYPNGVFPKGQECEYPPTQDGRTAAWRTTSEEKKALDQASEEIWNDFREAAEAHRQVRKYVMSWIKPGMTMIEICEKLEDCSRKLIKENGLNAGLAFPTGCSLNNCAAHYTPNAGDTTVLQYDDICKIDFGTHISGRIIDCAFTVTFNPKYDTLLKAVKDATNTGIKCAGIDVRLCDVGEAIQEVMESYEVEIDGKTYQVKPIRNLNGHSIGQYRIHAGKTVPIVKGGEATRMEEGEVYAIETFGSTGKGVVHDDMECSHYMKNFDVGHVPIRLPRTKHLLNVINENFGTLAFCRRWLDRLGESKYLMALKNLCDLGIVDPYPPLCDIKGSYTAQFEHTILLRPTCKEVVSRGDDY

[3] = target: T2, Methionine aminopeptidase 2; test: Degradation in HUVEC cells (WB) (Western Blot (WB)); type: functional, cell-based
[4] = target: Tyrosine-protein kinase Lck (Homo sapiens) (UniProt P06239); test: Inhibition of Lck(h) at 10.0 µM in the Eurofins Kinase panel; settings: Compound concentration 10.0 uM
[5] = target: Tyrosine-protein kinase Blk (Homo sapiens) (UniProt P51451); test: Inhibition of Blk(h) at 10.0 µM in the Eurofins Kinase panel; settings: Compound concentration 10.0 uM
[6] = target: Beta-adrenergic receptor kinase 1 (Homo sapiens) (UniProt P25098); test: Inhibition of GRK2(h) at 10.0 µM in the Eurofins Kinase panel; settings: Compound concentration 10.0 uM
[7] = target: Acetylcholinesterase (Homo sapiens) (UniProt P22303); test: Inhibition of Cholinesterase, Acetyl, ACES at 10.0 µM in the Eurofins Panlabs Safety Screen; settings: Compound concentration 10.0 uM
[8] = target: Monoamine oxidase B (MAO-B) (Homo sapiens, UniProt P27338); test: Inhibition of Monoamine Oxidase MAO-B at 10.0 µM in the Eurofins Panlabs Safety Screen; settings: compound concentration 10 uM
[9] = target: 3',5'-cyclic-AMP phosphodiesterase 4D (Homo sapiens) (UniProt Q08499); test: Inhibition of Phosphodiesterase PDE4D2 at 10.0 µM in the Eurofins Panlabs Safety Screen; settings: Compound concentration 10.0 uM
[10] = target: Adenosine receptor A1 (Homo sapiens) (UniProt P30542); test: Inhibition of Adenosine A1 at 10.0 µM in the Eurofins Panlabs Safety Screen; settings: Compound concentration 10.0 uM
[11] = target: Type-2 angiotensin II receptor (Homo sapiens) (UniProt P50052); test: Inhibition of Angiotensin AT2 at 10.0 µM in the Eurofins Panlabs Safety Screen; settings: Compound concentration 10.0 uM
Type-2 angiotensin II receptor (Homo sapiens), sequence (P50052 whole entry): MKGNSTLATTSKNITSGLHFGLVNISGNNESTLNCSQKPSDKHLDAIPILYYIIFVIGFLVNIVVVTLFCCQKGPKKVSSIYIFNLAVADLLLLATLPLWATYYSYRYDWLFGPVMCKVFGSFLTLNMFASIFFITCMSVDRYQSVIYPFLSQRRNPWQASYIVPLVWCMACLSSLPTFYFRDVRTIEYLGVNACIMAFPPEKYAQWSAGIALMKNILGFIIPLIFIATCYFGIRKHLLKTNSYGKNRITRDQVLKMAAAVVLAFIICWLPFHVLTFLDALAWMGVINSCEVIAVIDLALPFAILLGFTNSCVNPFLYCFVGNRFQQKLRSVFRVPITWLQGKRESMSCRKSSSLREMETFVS

[12] = target: Glucocorticoid receptor (Homo sapiens) (UniProt P04150); test: Inhibition of Glucocorticoid at 10.0 µM in the Eurofins Panlabs Safety Screen; settings: Compound concentration 10.0 uM
[13] = target: Glutamate receptor ionotropic, kainate 2 (Homo sapiens) (UniProt Q13002); test: Inhibition of Glutamate, Kainate at 10.0 µM in the Eurofins Panlabs Safety Screen; settings: Rattus norvegicus; Compound concentration 10.0 uM
[14] = target: Kappa-type opioid receptor (Homo sapiens) (UniProt P41145); test: Inhibition of Opiate kappa(OP2, KOP) at 10.0 µM in the Eurofins Panlabs Safety Screen; settings: Compound concentration 10.0 uM
Kappa-type opioid receptor (Homo sapiens), sequence (P41145 whole entry): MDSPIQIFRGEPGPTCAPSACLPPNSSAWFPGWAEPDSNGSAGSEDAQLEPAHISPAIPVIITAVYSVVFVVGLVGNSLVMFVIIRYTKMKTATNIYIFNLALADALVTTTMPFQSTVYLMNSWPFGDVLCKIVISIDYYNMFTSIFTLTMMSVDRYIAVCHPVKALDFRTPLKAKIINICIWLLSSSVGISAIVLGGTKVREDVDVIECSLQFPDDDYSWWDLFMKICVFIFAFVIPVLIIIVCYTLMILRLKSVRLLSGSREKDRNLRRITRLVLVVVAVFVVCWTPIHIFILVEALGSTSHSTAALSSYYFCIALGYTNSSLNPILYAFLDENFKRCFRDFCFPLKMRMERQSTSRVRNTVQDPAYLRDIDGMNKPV

[15] = target: Progesterone receptor (Homo sapiens) (UniProt P06401); test: Inhibition of Progesterone PR-B at 10.0 µM in the Eurofins Panlabs Safety Screen; settings: Compound concentration 10.0 uM
Progesterone receptor (Homo sapiens), sequence (P06401 whole entry): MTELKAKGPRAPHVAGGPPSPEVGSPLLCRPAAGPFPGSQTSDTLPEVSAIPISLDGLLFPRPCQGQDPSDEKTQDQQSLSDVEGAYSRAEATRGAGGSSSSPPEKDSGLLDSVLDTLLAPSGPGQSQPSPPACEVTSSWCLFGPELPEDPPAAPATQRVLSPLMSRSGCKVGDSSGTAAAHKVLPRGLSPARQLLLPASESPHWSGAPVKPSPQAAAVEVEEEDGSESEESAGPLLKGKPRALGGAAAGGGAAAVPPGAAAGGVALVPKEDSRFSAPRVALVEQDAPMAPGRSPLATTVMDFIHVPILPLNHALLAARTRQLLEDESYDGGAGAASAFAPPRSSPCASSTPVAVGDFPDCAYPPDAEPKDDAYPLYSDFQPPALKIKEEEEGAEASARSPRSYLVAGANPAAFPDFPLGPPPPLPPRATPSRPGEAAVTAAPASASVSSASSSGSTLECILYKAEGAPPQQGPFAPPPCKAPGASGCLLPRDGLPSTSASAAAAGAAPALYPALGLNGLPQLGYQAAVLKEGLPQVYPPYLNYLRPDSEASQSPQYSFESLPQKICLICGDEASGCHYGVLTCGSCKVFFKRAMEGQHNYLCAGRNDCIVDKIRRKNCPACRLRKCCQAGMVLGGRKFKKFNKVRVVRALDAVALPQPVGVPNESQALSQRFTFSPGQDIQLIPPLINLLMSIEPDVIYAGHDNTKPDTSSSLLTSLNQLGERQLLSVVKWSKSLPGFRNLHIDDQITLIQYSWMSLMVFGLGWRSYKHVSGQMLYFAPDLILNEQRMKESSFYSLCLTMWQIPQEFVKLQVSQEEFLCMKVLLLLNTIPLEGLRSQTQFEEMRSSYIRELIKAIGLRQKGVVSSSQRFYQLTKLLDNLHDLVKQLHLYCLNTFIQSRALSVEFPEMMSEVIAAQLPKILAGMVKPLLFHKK

[16] = target: Purinergic P2Y (Rattus norvegicus) (UniProt O35811+Q9EPX4+P49651+Q63371+P41232+O35881+Q6GUG4); test: Inhibition of Purinergic P2Y, non-selective at 10.0 µM in the Eurofins Panlabs Safety Screen; type: protein assay; settings: Compound concentration 10.0 uM
[17] = target: 5-hydroxytryptamine receptor 2A (Homo sapiens) (UniProt P28223); test: Inhibition of Serotonin (5-Hydroxytryptamine) 5-HT2A at 10.0 µM in the Eurofins Panlabs Safety Screen; settings: Compound concentration 10.0 uM
[18] = target: Sodium-dependent noradrenaline transporter (Homo sapiens) (UniProt P23975); test: Inhibition of Transporter, Norepinephrine (NET) at 10.0 µM in the Eurofins Panlabs Safety Screen; settings: Compound concentration 10.0 uM
[19] = target: D(1A) dopamine receptor (Homo sapiens) (UniProt P21728); settings: Compound concentration 10.0 uM
D(1A) dopamine receptor (Homo sapiens), sequence (P21728 whole entry): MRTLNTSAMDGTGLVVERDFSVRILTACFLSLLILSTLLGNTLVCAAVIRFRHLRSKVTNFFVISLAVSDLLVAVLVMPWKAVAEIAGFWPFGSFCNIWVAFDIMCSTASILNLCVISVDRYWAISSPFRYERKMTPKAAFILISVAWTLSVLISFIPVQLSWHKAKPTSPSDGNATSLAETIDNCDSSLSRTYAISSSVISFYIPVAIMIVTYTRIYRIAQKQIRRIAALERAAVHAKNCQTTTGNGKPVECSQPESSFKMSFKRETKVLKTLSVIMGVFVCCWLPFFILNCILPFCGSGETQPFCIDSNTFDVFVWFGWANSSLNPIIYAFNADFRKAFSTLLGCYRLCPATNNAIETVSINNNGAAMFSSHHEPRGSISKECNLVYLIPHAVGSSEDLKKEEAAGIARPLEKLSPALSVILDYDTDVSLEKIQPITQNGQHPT

D(3) dopamine receptor = D(3) dopamine receptor (Homo sapiens, UniProt P35462); settings: Compound concentration 10.0 uM
D(3) dopamine receptor, sequence (P35462 whole entry): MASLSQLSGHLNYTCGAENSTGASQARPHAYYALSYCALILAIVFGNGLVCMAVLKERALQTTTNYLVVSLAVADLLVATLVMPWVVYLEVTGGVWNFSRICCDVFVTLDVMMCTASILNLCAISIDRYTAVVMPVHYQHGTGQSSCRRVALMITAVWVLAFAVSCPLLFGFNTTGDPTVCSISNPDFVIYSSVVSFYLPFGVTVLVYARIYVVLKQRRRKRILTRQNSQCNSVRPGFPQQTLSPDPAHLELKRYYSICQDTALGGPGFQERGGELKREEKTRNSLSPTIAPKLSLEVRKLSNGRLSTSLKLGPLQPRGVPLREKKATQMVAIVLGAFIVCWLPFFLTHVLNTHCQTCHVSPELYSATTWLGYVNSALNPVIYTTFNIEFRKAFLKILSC

[20] = target: D(1B) dopamine receptor (Homo sapiens) (UniProt P21918); settings: Compound concentration 10.0 uM
D(1B) dopamine receptor (Homo sapiens), sequence (P21918 whole entry): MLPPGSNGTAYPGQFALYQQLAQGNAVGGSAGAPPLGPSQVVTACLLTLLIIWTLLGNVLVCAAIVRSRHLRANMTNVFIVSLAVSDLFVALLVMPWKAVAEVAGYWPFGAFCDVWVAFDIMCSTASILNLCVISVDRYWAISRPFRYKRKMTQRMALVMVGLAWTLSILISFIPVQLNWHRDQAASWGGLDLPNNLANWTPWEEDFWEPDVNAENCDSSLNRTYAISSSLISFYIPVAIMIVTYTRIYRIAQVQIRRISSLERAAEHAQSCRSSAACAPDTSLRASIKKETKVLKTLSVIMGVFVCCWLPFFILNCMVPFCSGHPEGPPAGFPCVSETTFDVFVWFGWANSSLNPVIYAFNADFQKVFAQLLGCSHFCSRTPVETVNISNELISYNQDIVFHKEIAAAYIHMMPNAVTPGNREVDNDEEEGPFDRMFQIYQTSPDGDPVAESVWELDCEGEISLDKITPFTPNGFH

[21] = target: Histamine H2 receptor (Homo sapiens) (UniProt P25021); settings: Compound concentration 10.0 uM
Histamine H2 receptor (Homo sapiens), sequence (P25021 whole entry): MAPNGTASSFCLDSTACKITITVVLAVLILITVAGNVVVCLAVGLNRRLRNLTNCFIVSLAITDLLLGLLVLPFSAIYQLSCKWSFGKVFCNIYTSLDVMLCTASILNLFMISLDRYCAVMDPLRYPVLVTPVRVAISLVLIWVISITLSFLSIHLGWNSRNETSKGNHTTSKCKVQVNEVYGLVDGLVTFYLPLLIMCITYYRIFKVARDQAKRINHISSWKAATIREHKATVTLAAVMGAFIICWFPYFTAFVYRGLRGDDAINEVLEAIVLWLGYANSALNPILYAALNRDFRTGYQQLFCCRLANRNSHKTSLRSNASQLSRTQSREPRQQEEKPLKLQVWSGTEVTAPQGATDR

[22] = target: Histamine H4 receptor (Homo sapiens) (UniProt Q9H3N8); settings: Compound concentration 10.0 uM
Histamine H4 receptor (Homo sapiens), sequence (Q9H3N8 whole entry): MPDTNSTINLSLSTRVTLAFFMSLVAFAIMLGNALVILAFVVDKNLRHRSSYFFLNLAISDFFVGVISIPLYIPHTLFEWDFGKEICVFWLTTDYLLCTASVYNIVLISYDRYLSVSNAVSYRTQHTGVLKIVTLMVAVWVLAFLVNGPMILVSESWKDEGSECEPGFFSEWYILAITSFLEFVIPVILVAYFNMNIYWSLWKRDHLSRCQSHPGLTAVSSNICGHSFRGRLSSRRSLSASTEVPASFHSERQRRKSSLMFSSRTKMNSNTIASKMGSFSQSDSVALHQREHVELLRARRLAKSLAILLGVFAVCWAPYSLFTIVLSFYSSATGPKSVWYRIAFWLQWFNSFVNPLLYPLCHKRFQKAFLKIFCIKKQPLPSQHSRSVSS

[23] = target: Alpha-1A adrenergic receptor (Homo sapiens) (UniProt P35348); settings: Compound concentration 10.0 uM
Alpha-1A adrenergic receptor (Homo sapiens), sequence (P35348 whole entry): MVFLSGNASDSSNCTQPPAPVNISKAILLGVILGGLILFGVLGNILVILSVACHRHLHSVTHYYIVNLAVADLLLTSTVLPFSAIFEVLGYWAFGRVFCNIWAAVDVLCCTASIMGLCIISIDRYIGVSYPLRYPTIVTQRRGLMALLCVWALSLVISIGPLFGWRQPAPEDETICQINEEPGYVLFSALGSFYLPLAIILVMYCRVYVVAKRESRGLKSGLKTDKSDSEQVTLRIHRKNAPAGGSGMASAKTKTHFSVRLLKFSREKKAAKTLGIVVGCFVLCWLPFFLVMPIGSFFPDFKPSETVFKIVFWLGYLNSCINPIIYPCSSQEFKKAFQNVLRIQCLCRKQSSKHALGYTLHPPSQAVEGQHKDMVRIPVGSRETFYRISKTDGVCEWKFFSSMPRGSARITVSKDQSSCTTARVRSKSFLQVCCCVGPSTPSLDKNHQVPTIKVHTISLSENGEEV

[24] = target: T3, Muscarinic acetylcholine receptor M1 (Homo sapiens) (UniProt P11229); settings: Compound concentration 10.0 uM
T3 sequence (whole entry): T1 sequence (P11229 whole entry)

[25] = target: T4, Muscarinic acetylcholine receptor M2 (Homo sapiens) (UniProt P08172); settings: Compound concentration 10.0 uM
T4 sequence (whole entry): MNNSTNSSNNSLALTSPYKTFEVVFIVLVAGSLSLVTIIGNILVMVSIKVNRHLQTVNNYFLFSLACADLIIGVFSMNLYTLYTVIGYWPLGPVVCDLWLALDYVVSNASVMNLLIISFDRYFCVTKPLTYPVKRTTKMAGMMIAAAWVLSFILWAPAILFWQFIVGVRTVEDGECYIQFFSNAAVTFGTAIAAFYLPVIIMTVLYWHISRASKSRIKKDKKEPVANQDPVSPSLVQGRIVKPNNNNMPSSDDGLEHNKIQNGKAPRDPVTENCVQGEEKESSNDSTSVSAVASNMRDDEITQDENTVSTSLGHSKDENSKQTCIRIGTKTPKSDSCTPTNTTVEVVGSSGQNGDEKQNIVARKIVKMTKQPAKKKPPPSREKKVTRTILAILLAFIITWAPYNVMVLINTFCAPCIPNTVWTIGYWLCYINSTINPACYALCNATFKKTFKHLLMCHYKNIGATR

## O=C1CCC(N2Cc3cc(C4CCN(C(=O)CCCCCN5CCC(c6ccc(Oc7nn8cnnc8c8c7CCCC8)cc6)CC5)CC4)ccc3C2=O)C(=O)N1 (centres undefined)
[1]; read-out: Ki
  Ki: 1670 nM
[1]; read-out: pKi (converted)
  Ki: 1660 nM
[2]
  IC50: 5.8 nM (active)
[3]
  DC50: 0.2 nM (active)
[4]
  inhibition: 14.3%
[5]
  inhibition: 13.9%
[6]
  inhibition: 11.9%
[7]
  inhibition: 45%
[8]
  inhibition at 10 µM: 34%
[9]
  inhibition: 10%
[10]
  inhibition: 7%
[11]
  inhibition: 13%
[12]
  inhibition: 13%
[13]
  inhibition: -2%
[14]
  inhibition: 18%
[15]
  inhibition: 24%
[16]
  inhibition: 4%
[17]
  inhibition: 35%
[18]
  inhibition: 28%
[19]
  inhibition: 5.21%
D(3) dopamine receptor
  inhibition: 25.6%
[20]
  inhibition: 1.6%
[21]
  inhibition: 42.2%
[22]
  inhibition: -8.84%
[23]
  inhibition: 12.2%
[24]
  inhibition: 71.3%
[25]
  inhibition: 64.3%

## O=C1NCCCC1N1Cc2cc(C3CCN(C(=O)CCCCCN4CCC(c5ccc(Oc6nn7cnnc7c7c6CCCC7)cc5)CC4)CC3)ccc2C1=O (centres undefined)
[1]; read-out: Ki
  Ki: 2190 nM
[1]; read-out: pKi (converted)
  Ki: 2190 nM
[2]
  IC50: 5.7 nM
[3]
  DC50: > 100 nM (not active)
[4]
  inhibition: 11.9%
[5]
  inhibition: 26.1%
[6]
  inhibition: 15.1%
[7]
  inhibition: 38%
[8]
  inhibition at 10 µM: 30%
[9]
  inhibition: 18%
[10]
  inhibition: 3%
[11]
  inhibition: 17%
[12]
  inhibition: 20%
[13]
  inhibition: 1%
[14]
  inhibition: 35%
[15]
  inhibition: 19%
[16]
  inhibition: 12%
[17]
  inhibition: 39%
[18]
  inhibition: 15%
[19]
  inhibition: 8.56%
D(3) dopamine receptor
  inhibition: 68.3%
[20]
  inhibition: 10.8%
[21]
  inhibition: 42.1%
[22]
  inhibition: -3.44%
[23]
  inhibition: -1.93%
[24]
  inhibition: 60.4%
[25]
  inhibition: 57.2%
